Results reported in PubChem BioAssay AID449758 (The Scripps Research Institute Molecular Screening Center, 2010).
Active and inactive are the calls of the source. The rule behind the calls is not given here.

Tested on: Human cells, IFNg-induced IRF-1 mRNA, SYBR qPCR
Experiment: inhibitors of IFNg-induced IRF-1 mRNA expression, late-stage follow-up, counter-screen for STAT1 inhibitor project, cell-based, SYBR qPCR, powder samples (AID 449758)
Details: at 10 µM; stronger effect = lower value

Structure (SMILES) | fold change
Cc1ccc(-n2nc(C(=O)O)c3ccccc3c2=O)cc1C | 0.764 (inactive)
O=c1cc(CSc2nc3ccccc3c(=O)[nH]2)c2ccc(O)cc2o1 | 1.36 (inactive)
CCOC(=O)N1CCN(C(=O)c2ccc(-n3c(=S)[nH]c4ccccc4c3=O)cc2)CC1 | 0.883 (inactive)
CCOC(=O)C(=CNc1cc(C)nn1-c1ccccc1)C(=O)OCC | 0.997 (inactive)
Cc1cc(=O)n(C(NC(=O)c2ccccc2)C(=O)c2ccccc2)cn1 (stereo not given) | 1.24 (inactive)
